“Also recorded” adds a separate entry of the source. Where two headings read alike, the source gives them in different places.
What was measured:
[1] = test system: rat primary hepatocytes; experiment: Hypothermic stress of rat primary hepatocytes with supplements; format: cell-based
Protocol: (§1) Thermal Stress Regime: Cells were seeded into 96-well tissue culture plates (13,000 cells per well) and cultured for 24 hours into a monolayer. Culture media was decanted from experimental plates and replaced with 100 μl/well of the pre-cooled (4° C.) solution (complete growth media, HBSS with calcium and magnesium, ViaSpan, or OptiSol). Cultures were maintained at 4° C. for 18 hours to 9 days. Following cold storage, the media were decanted, replaced with 100 μl/well of room temperature (˜25° C.) complete culture media and then placed into standard culture conditions (37° C., 5% CO2) for recovery and assessment.
(§2) Cell Viability Assay: To assess cell viability the metabolic activity assay, alamarBlue™ (Invitrogen) was utilized. Cell culture medium was decanted from the 96-well plates and 100 μl/well of the working alamarBlue™ solution (1:20 dilution in HBSS) was applied. Samples were then incubated for 60 minutes (±1 min) at 37° C. in the dark. The fluorescence levels were analyzed using a Tecan SPECTRAFluorPlus plate reader (TECAN, Austria GmbH). Relative fluorescence units were converted to a percentage compared to normothermic controls set at 100%. Readings were taken immediately following removal from hypothermic storage as well as 24 and 48 hours of recovery.
In FIG. 19, the C3A cells were then substituted with rat primary hepatocytes. […]

[2] = test system: human hepatocytes; experiment: Hypoxic normothermic stress of hepatocytes with supplements; format: cell-based
Protocol: (§3) As an example, hepatocytes and C3A cells were placed under hypoxic conditions […] (normothermic incubation) in various commercial media with and without salubrinal or resveratrol. As with the cold thermal stress model, through the application of the current invention, preferential selection of either cell population was possible. The table in FIG. 10 summarizes the representative response of the various liver cells when placed into the two stress model conditions of thermal and hypoxic stress.
(§4) Stress Regime 2—Hypoxia: Cells were held at 37° C. in an incubator with reduced levels of O2 for a 24 hour period. Two hypoxia models were utilized including increased CO2 levels providing for an 80% air: 20% CO2 ratio (versus standard 95% air: 5% CO2) as well as limited gas exchange using isolated environmental chambers. This procedure is designed to model various intervals of suboptimal culture conditions associated with cell processing and utilization.

[3] = test system: human hepatoma C3A cell lines; experiment: C3A cells three days under optimal culture conditions with FR-234 (alamarBlue); format: cell-based; conditions: highest dose, 100 μg/mL; three days at 37° C., 5% CO2
Protocol: FIG. 7 assesses the effect of the stress modulator, resveratrol (FR-234), exposure for three days under optimal culture conditions in human hepatoma C3A cell lines. In this graph, C3A cells were stored for three days under optimal culture conditions (37° C., 5% CO2) with a range of FR-234 doses. Cells were removed from storage after three days. Storage solutions were replaced with fresh culture media and viability was assessed at 1, 2, and 3 days post-storage using the metabolic activity indicator, alamarBlue.

[4] = test system: primary human hepatocytes; experiment: Hypothermic stress of primary human hepatocytes with supplements; format: cell-based; conditions: hypothermic exposure at 4° C.
Protocol: as §1, §2
As such, in FIG. 20, primary human hepatocytes were then subjected to the same hypothermic stress paradigm. […]

[5] = test system: human lung fibroblasts (IMR-90); experiment: Cold exposure of human lung fibroblasts (IMR-90); format: cell-based
Protocol: Preliminary studies into Unfolded Protein Response (UPR) pathways in cell death associated with cell stress has provided promising results. The UPR activator, tunicamycin, was applied in a thermal stress regime. In FIG. 5, human lung fibroblasts (IMR-90) were exposed to the cold (4° C.) in cell culture media, Viaspan (with and without tunicamycin), or ViaSpan with DMSO (carrier solution for tunicamycin). The DMSO control acts as a chemical chaperone. It was hypothesized that the addition of tunicamycin would result in an increased level of cell death following thermal stress.
With this discovery, additional studies were conducted under a more stressful thermal regime designed to completely destroy all cells. […] In subsequent studies, tunicamycin was added subsequent to (rather than during) the cold stress period and compared to samples without addition. (See FIG. 5).
FIG. 5 also depicts the viability of human lung fibroblasts (IMR-90) following two days of cold exposure with the addition of resveratrol (FR234). […] Yet, when tunicamycin is added during the recovery phase, this agent has the predicted lethal effect as described in the UPR literature.

[6] = test system: C3A, human liver cancer cells; experiment: Hypoxic normothermic stress of C3A cells with supplements; format: cell-based; conditions: normothermic hypoxic stress regime
Protocol: as §3, §4

[7] = test system: human corneal endothelial cells (HCECs); experiment: Viability of HCECs after hypothermic storage (alamarBlue); format: cell-based; conditions: for survival difference between ViaSpan with and without tunicamycin: 3 days at 4° C.; for viability at 10 µM / viability at 25 µM: Homo sapiens, HCEC; for viability at 10 µM: 10 μM salubrinal
Protocol: as §1, §2
Chemical Additions: Modulation of the UPR was accomplished through the use of salubrinal (UPR-specific inhibitor), tunicamycin (UPR-specific inducer), resveratrol, AKT, Vitamin D3, caspase and MPTP inhibitors, among others. For instance, salubrinal (EMD Chemicals Inc., Gibbstown, N.J.) was added to media at working concentrations of 10 and 25 μM immediately before utilization. Tunicamycin (EMD Chemicals Inc.) was added to ViaSpan at a working concentration of 2 ug/mL immediately prior to use. All chemicals were diluted in water, ethanol, or DMSO prior to utilization and DMSO controls were conducted to ensure no effect of the dilution vehicle.

[8] = test system: human corneal endothelial cells (HCECs); experiment: Cell death populations in HCECs after cold storage (flow cytometry, fluorescence microscopy); format: cell-based
Protocol: Fluorescence Microscopy: Samples in 96-well plates were assessed for the presence of live, necrotic or apoptotic cells through triple labeling using Hoechst [81 μM], propidium iodide [9 μM], and Y oPro-1 [0.8 μM] (Molecular Probes, Eugene, Oreg.), respectively. Probes were added to samples and incubated in the dark for 20 minutes prior to imaging. To assess membrane integrity a dual label of calcein-AM [4 μM] and propidium iodide [9 μM] was utilized. Dual label probes were added to the samples and incubated for 30 minutes in the dark. All fluorescence images of labeled cells were obtained at 1, 4, 8 and 24 hours post-storage using a Zeiss Axiovert 200 fluorescent microscope with the AxioVision 4 software (Zeiss, Germany).
Flow Cytometric Analysis: Counts of the unlabeled (live), necrotic (PI [1.5 μM]) and apoptotic (YOPRO-1 [0.1 μM]) labeled cells were obtained using microfluidic flow cytometry (Millipore). Probes were added to each sample and incubated in the dark for 20 minutes prior to cell collection. Counts of cells with polarized and depolarized mitochondria (JC-1 [7.7 μM]) were also obtained via microfluidic flow cytometry. Samples were labeled, collected and analyzed at 1, 4, 8 and 24 hours post-storage. Analysis was performed using the CytoSoft 5.2 software for the Guava PCA-96 system.
Following the observation of differences in viability through the targeted modulation of the UPR, we next analyzed what effect this targeted approach has on the level and timing of cell death following hypothermic storage. HCECs were held at 4° C. for 24 hours in various solutions (CGM, HBSS, ViaSpan and OptiSol) with and without the addition of 25 μM salubrinal and assessed via microfluidic flow cytometry and fluorescence microscopy. Analysis of the apoptotic and necrotic populations was conducted to examine the effect UPR inhibition (25 μM salubrinal) had on cell death populations post-storage.

[9] = test system: human hepatoma (C3A); format: cell-based
Excerpt: Samples were processed utilizing industry standard media (Roswell Park Memorial Institute, RPMI, media), cryo-protective agents and techniques. Cell survival response curves were plotted against varying concentrations of DMSO. Samples were frozen, thawed, cultured to allow for recovery, and then frozen again. This process was repeated 4 times (e.g. Freeze #1, Freeze #2, Freeze #3, Freeze #4) over experimental periods of several weeks (FIG. 8).
As the intent of cell-guard is to reduce the negative effects of stress response of cells during normothermic culture processing, a series of studies using the freeze stress model were conducted examining the potential of stress response modulation during recovery culture. The studies examined the effect of modulating the apoptotic cell death mechanism, caspase cascade, as well as mitochondrial oxidative stress pathways. While numerous studies have looked at caspase and free radical formation inhibition during stresses including freezing, no studies have been reported looking to the effect of post-processing manipulation.
As such, in FIG. 9, C3A samples were frozen using industry standard protocols in culture media+0%, 2%, 5%, and 10% DMSO. […]

[10] = test system: RM-9 prostate cancer cells; experiment: Survival of RM-9 prostate cancer cells under cryotreatment (freezing) stress; format: cell-based, mouse; conditions: high doses
Excerpt: Experiments have been completed and have expanded the scope of study to (1) include natural agents as part of the formulation and (2) target various stress pathways that may be activated in cells when they are bioprocessed. A variety of agents were used in addition to resveratrol. Of these, Vitamin D3 (i.e. calcitriol) at high doses protects the cells. […] Here, the stress regime included cryotreatment (freezing).

## Oc1ccc(C=Cc2cc(O)cc(O)c2)cc1 [resveratrol]
[1]
  protection of rat primary hepatocytes from hypothermic stress: very effectively protected
[2]; normothermic hypoxic stress regime
  cell viability of hepatocytes: not for hepatocytes
[3]
  effect on sample viability: profound negative effect on sample viability
[4]
  protection of human hepatocytes from cold stress / cell viability: able to completely protect; also recorded: extended
[5]; two days of cold exposure
  effect of resveratrol on viability: positive effects
[6]
  cell viability of C3A cells: extended the cell viability for C3A cells

## tunicamycin
[7]; 3 days at 4° C. in ViaSpan, tunicamycin 2 ug/mL, 0 hours recovery
  cell survival immediately post-storage: ~60%
[7]; 24 hours of recovery
  survival difference between ViaSpan with and without tunicamycin: 29.0%
[7]; 48 hours post-storage
  survival difference between ViaSpan with and without tunicamycin: 53.9%
[7]; tunicamycin added during cold exposure
  HCEC survival during the recovery period: significant decrease in HCEC survival
[5]; post stress addition of tunicamycin (recovery phase)
  cell survival: reduction in cell survival
[5]; tunicamycin in Viaspan during cold (4° C.) exposure
  thermal tolerance: increase in thermal tolerance
[5]; two days of cold exposure
  effect of tunicamycin post-cold on samples exposed to resveratrol: negating the positive effects of resveratrol

## O=C(/C=C/c1ccccc1)NC(NC(=S)Nc1cccc2cccnc12)C(Cl)(Cl)Cl (centres unmarked) [salubrinal]
[7]; 24 hours at 4° C. in CGM, 25 μM salubrinal
  viability over the 48 hour recovery period: retained
[7]; 24 hours at 4° C. in HBSS and ViaSpan
  effect of salubrinal addition on viability: no differences
[7]; 48 hour storage in ViaSpan
  effect of salubrinal supplementation on viability: no effect
[7]; 48 hour storage in ViaSpan with salubrinal supplementation
  viability: 76.7%
[7]; CGM and OptiSol, all samples with and without salubrinal
  viability following 2 days of cold storage: complete loss in viability
[7]; FIG. 11, 18 hours of hypothermic storage
  HCEC tolerance to stress: improves human corneal endothelial cell (HCEC) tolerance to stress
[7]; HCEC samples experiencing profound cold-induced failure
  increase in cell survival: 2 fold
[7]; 48 h, 2 days at 4° C. in HBSS, read-out: overall viability
  viability at 10 µM: 26.9%
[7]; 48 h, 2 days at 4° C. in HBSS, 25 μM salubrinal, read-out: overall viability
  viability at 25 µM: 37.8%
[7]; 24 hours at 4° C. in CGM, read-out: post-storage viability
  viability at 10 µM: 23.1%
[7]; 24 hours at 4° C. in CGM, 25 μM salubrinal, read-out: post-storage viability
  viability at 25 µM: 28%
[7]; 24 hours at 4° C. in OptiSol, read-out: post storage viability
  viability at 10 µM: 52.3%
[7]; 24 hours at 4° C. in OptiSol, 25 μM salubrinal, read-out: post storage viability
  viability at 25 µM: 53.9%
[1]; hypothermic exposure at 4° C.
  protection of rat primary hepatocytes from hypothermic stress: failed to protect
[2]
  cell viability of hepatocytes: extended the cell viability of hepatocytes
[8]; 25 μM salubrinal, 24 hours at 4° C.
  total cell retention during hypothermic exposure: increased retention of total cells
[8]; 25 μM salubrinal, 24 hours at 4° C., each time point
  levels of apoptosis, inhibited vs uninhibited: elevated
[8]; 25 μM salubrinal, 24 hours at 4° C., normalized to normothermic control
  necrotic populations, UPR inhibited vs uninhibited: similar
[8]; CGM storage 24 hours, calcein-AM and propidium iodide
  membrane integrity and cellular attachment during recovery: marked increase

## CC(=O)N[C@@H](CS)C(=O)O [NAC, N-Acetyl-Cysteine]
[9]
  effect on cell division in extended post-stress culture: no downstream negative effect on cell division
[9]; 10% DMSO condition, supplement for first 24 hours post-processing
  overall increase in sample recovery: ~20%

## C=C1/C(=C\C=C2/CCC[C@]3(C)[C@@H]([C@H](C)CCCC(C)(C)O)CC[C@@H]23)C[C@@H](O)C[C@@H]1O [Vitamin D3, calcitriol]
[10]
  protection of cells under stress regime: protects cells

Reference: US10336984B2, “Method of molecular stress control” (CPSI Holdings LLC, priority 2010, dated 2019)
